Counter-ions that a name gives are not always drawn.

In the assay the target is T1, human orexin-2 (hOX2) receptor (Homo sapiens, UniProt O43614).
T1 construct: expressed in transfected cells
T1 sequence (O43614 1-444): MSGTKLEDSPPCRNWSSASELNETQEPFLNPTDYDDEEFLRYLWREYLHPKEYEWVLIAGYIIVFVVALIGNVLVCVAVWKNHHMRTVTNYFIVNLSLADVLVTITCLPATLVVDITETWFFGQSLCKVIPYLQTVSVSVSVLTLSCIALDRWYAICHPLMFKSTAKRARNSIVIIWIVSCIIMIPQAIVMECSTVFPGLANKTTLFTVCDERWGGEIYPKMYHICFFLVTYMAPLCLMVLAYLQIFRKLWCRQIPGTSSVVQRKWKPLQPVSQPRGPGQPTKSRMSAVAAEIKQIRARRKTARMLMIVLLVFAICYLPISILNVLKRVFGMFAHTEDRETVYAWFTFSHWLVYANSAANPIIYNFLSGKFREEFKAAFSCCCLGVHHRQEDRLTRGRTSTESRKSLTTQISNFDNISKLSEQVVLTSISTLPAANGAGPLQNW
The assay can be described thus: Intracellular Ca2+ mobilization assay (FLIPR), CHO(dHFr-) cells expressing hOX2, orexin-A at EC80 as agonist. Format: cell-based. The following applies: Kb=IC50/(1+[A]/EC50); CHO(dHFr-)-OX2R cells, antagonist applied 25 min before orexin-A EC80. As to the method: Intracellular Ca^2+ Mobilization Assay
The Chinese Hamster Ovary (dHFr−) mutant cell line stably expressing human orexin-1 (hOX1) or human orexin-2 (hOX2) receptors were maintained in Dulbecco's Modified Eagle Medium (1×) with GlutaMax™ 1, 4500 mg/L D-Glucose and Sodium Pyruvate (Catalog No. 31966-021, Invitrogen, Carlsbad, Calif.), 5% dialyzed fetal calf serum (Catalog No. 26400-044), 100 μg/ml penicillin and 100 μg/ml streptomycin. The cells were seeded at 5×10^4 cells/well in the poly-D-lysine treated, 96-well, black/clear-bottomed plates (Catalog No. BD356640, BD Biosciences, Palo Alto, Calif.). 24 h later, the cells were loaded for 1 h at 37° C. with 4 μM Flou-4 acetoxymethyl ester (Catalog No. F-14202, Molecular Probes, Eugene, Oreg.) in FLIPR buffer (1×HBSS, 20 mM HEPES, 2.5 mM Probenecid). Hanks' Balanced Salt Solution (HBSS) (10×) (catalog No. 14065-049) and HEPES (1M) (catalog No. 15630-056) were purchased from Invitrogen, Carlsbad, Calif. Probenecid (250 mM) (catalog No. P8761) was from Sigma, Buchs, Switzerland. The cells were washed five times with FLIPR buffer to remove excess dye and intracellular calcium mobilization, [Ca^2+]i were measured using a Fluorometric Imaging Plate Reader (FLIPR-96, Molecular Devices, Menlo Park, Calif.) as described previously (Malherbe et al., Mol. Pharmacol., 64, 823-832, 2003). Orexin A (catalog No. 1455, Toris Cookson Ltd, Bristol, UK) was used as agonist. Orexin A (50 mM stock solution in DMSO) was diluted in FLIPR buffer +0.1% BSA. The EC50 and EC80 values of orexin-A were measured daily from standard agonist concentration-response curves in CHO(dHFr−) —OX1R and —OX2R cell lines. All compounds were dissolved in 100% DMSO. Inhibition curves were determined by addition of 11 concentrations (0.0001-10 μM) of inhibitory compounds and using EC80 value of orexin-A as agonist (a concentration which gave 80% of max agonist response, determined daily). The antagonists were applied 25 min (incubation at 37° C.) before the application of the agonist. Responses were measured as peak increase in fluorescence minus basal, normalized to the maximal stimulatory effect induced by EC80 value of orexin-A or orexin-B. Inhibition curves were fitted according to the Hill equation: y=100/(1+(x/IC50)^nH), where nH=slope factor using Excel-fit 4 software (Microsoft).
Kb values were calculated according to the following equation Kb=IC50/(1+[A]/EC50) where A is the concentration of agonist added which is very close to agonist EC80 value, and IC50 and EC50 values were derived from the antagonist inhibition and orexin-A or B agonist curves, respectively.
Take `Cc1ccc(CCN(C(=O)[C@@H](NC(=O)CN)c2ccccc2)c2ccc(C)c(C)c2)cc1` [Example 248, (S)-2-(2-Amino-acetylamino)-N-(3,4-dimethyl-phenyl)-2-phenyl-N-(2-p-tolyl-ethyl)-acetamide]: the Kb (in general, the equilibrium dissociation constant of an antagonist, usually derived from a functional assay) came to 0.0353 µM.

`Cc1ccc(N(CCc2ccc(F)c(F)c2)C(=O)C(N)c2ccc(Cl)s2)cc1C` (centres unmarked) [Example 214, 2-Amino-2-(5-chloro-thiophen-2-yl)-N-[2-(3,4-difluoro-phenyl)-ethyl]-N-(3,4-dimethyl-phenyl)-acetamide hydrochloride] came in with a Kb of 0.0966 µM.

In turn, `COc1ccc(N(CCc2ccc(C(F)(F)F)cc2)C(=O)[C@@H](N)c2ccccc2)cc1OC` [Example 173, (S)-2-Amino-N-(3,4-dimethoxy-phenyl)-2-phenyl-N-[2-(4-trifluoromethyl-phenyl)-ethyl]-acetamide hydrochloride] returned a Kb of 0.0011 µM.

As for `CNC(C(=O)N(CCc1ccc(C(F)(F)F)cc1)c1ccc(OC)c(OC)c1)c1ccccc1` (centres unmarked) [Example 53, N-(3,4-Dimethoxy-phenyl)-2-methylamino-2-phenyl-N-[2-(4-trifluoromethyl-phenyl)-ethyl]-acetamide], the Kb turned out to be 0.0305 µM.

The compound `COC(CNC(C(=O)N(CCc1ccc(C)cc1)c1ccc(C)c(C)c1)c1ccccc1)OC` (centres unmarked) [Example 129, 2-(2,2-Dimethoxy-ethylamino)-N-(3,4-dimethyl-phenyl)-2-phenyl-N-(2-p-tolyl-ethyl)-acetamide] yielded a Kb of 0.0173 µM.

The compound `Cc1ccc(N(CCc2ccc(F)cc2F)C(=O)[C@@H](N)c2ccccc2)cc1C` [Example 188, (S)-2-Amino-N-[2-(2,4-difluoro-phenyl)-ethyl]-N-(3,4-dimethyl-phenyl)-2-phenyl-acetamide hydrochloride] returned a Kb of 0.0269 µM. This Kb lies about 1.6-fold higher than the previous one.

`Cc1ccc(CCN(C(=O)C(NC(C)(C)CO)c2ccccc2)c2ccc(C)c(C)c2)cc1` (centres unmarked) [Example 132, N-(3,4-Dimethyl-phenyl)-2-(2-hydroxy-1,1-dimethyl-ethylamino)-2-phenyl-N-(2-p-tolyl-ethyl)-acetamide] showed a Kb of 0.0642 µM. This Kb is about 2.4-fold higher than that of the compound before.

`CCC(COC)NC(C(=O)N(CCc1ccc(C)cc1)c1ccc(C)c(C)c1)c1ccccc1` (centres unmarked) [Example 125, N-(3,4-Dimethyl-phenyl)-2-(1-methoxymethyl-propylamino)-2-phenyl-N-(2-p-tolyl-ethyl)-acetamide] came in with a Kb of 0.0267 µM. Compared with the last compound, the Kb is about 2.4-fold lower.

Take `COc1cc(N(CCc2ccc(C(F)(F)F)cc2)C(=O)[C@@H](N)c2ccccc2)ccc1C` [Example 162, (S)-2-Amino-N-(3-methoxy-4-methyl-phenyl)-2-phenyl-N-[2-(4-trifluoromethyl-phenyl)-ethyl]-acetamide]: the Kb was found to be 0.0151 µM.

For the compound `NC(C(=O)N(CCc1ccc(C(F)(F)F)cc1)c1ccc2c(c1)OCO2)c1ccccc1` (centres unmarked) [Example 58, 2-Amino-N-benzo[1,3]dioxol-5-yl-2-phenyl-N-[2-(4-trifluoromethyl-phenyl)-ethyl]-acetamide], the Kb was found to be 0.0275 µM.

As to `COc1ccc(N(CCc2ccc(C(F)(F)F)cc2)C(=O)C(O)c2ccc(F)cc2)cc1OC` (centres unmarked) [Example 26, N-(3,4-dimethoxyphenyl)-2-(4-fluorophenyl)-2-hydroxy-N-{2-[4-(trifluoromethyl)phenyl]ethyl}acetamide], the Kb was found to be 0.0592 µM.

The compound `Cc1ccc(CCN(C(=O)C(N)c2ccccc2)c2ccc(C)c(C)c2)cc1` (centres unmarked) [Example 89, 2-Amino-N-(3,4-dimethyl-phenyl)-2-phenyl-N-(2-p-tolyl-ethyl)-acetamide] displayed an antagonist dissociation constant (Kb) of 0.0241 µM.

In the case of `NC(C(=O)N(CCc1ccc(C(F)(F)F)cc1)c1ccc(OC(F)F)cc1)c1ccccc1` (centres unmarked) [Example 105, 2-Amino-N-(4-difluoromethoxy-phenyl)-2-phenyl-N-[2-(4-trifluoromethyl-phenyl)-ethyl]-acetamide], the Kb came to 0.0414 µM. Against the preceding compound, the Kb is about 1.7-fold higher.

Compound `Cc1ccc(N(CCc2ccc(C(F)(F)F)cc2)C(=O)C(N)c2ccccc2)cc1` (centres unmarked) [Example 69, 2-Amino-2-phenyl-N-p-tolyl-N-[2-(4-trifluoromethyl-phenyl)-ethyl]-acetamide] yielded a Kb of 0.0828 µM.

The compound `Cc1ccc(CCN(C(=O)C(NCc2ccco2)c2ccccc2)c2ccc(C)c(C)c2)cc1` (centres unmarked) [Example 130, N-(3,4-Dimethyl-phenyl)-2-[(furan-2-ylmethyl)-amino]-2-phenyl-N-(2-p-tolyl-ethyl)-acetamide] returned a Kb of 0.0416 µM.

`N[C@H](C(=O)N(CCc1ccc(C(F)(F)F)cc1)c1ccc(OC(F)F)c(Cl)c1)c1ccc(F)cc1` [Example 163, (S)-2-Amino-N-(3-chloro-4-difluoromethoxy-phenyl)-2-(4-fluoro-phenyl)-N-[2-(4-trifluoromethyl-phenyl)-ethyl]-acetamide] displayed a Kb of 0.0778 µM.

In turn, `Cc1ccc(CCN(C(=O)[C@@H](N)c2ccc(F)cc2)c2ccc(C)c(C)c2)cc1` [Example 144, (S)-2-Amino-N-(3,4-dimethyl-phenyl)-2-(4-fluoro-phenyl)-N-(2-p-tolyl-ethyl)-acetamide] registered a Kb of 0.0174 µM.

Compound `Cc1ccc(N(CCc2ccccc2C)C(=O)[C@@H](N)c2ccccc2)cc1C` [Example 185, (S)-2-Amino-N-(3,4-dimethyl-phenyl)-2-phenyl-N-(2-o-tolyl-ethyl)-acetamide hydrochloride] came in with a Kb of 0.0305 µM.

In turn, `COc1ccc(N(CCc2ccc(C(F)(F)F)cc2)C(=O)[C@@H](O)c2ccccc2)cc1OC` [Example 23, (2S)-N-(3,4-dimethoxyphenyl)-2-hydroxy-2-phenyl-N-{2-[4-(trifluoromethyl)phenyl]ethyl}acetamide] showed a Kb of 0.0226 µM.

`Cc1ccc(N(CCc2ccc(OC(F)(F)F)cc2)C(=O)[C@@H](N)c2ccccc2)cc1C` [Example 176, (S)-2-Amino-N-(3,4-dimethyl-phenyl)-2-phenyl-N-[2-(4-trifluoromethoxy-phenyl)-ethyl]-acetamide]: the Kb is 0.0505 µM.

The compound `Cc1ccc(N(CCc2ccc(C(F)(F)F)cc2)C(=O)[C@@H](N)c2ccccc2)cc1C` [Example 138, (S)-2-Amino-N-(3,4-dimethyl-phenyl)-2-phenyl-N-[2-(4-trifluoromethyl-phenyl)-ethyl]-acetamide] gave a Kb of 0.0364 µM.

Take `COc1ccc(N(CCc2ccc(C(F)(F)F)cc2)C(=O)C(N)c2ccc(Cl)cc2)cc1OC` (centres unmarked) [Example 62]: the Kb was 0.0751 µM.

As to `Cc1ccc(N(CCc2cc(C(F)(F)F)ccc2F)C(=O)[C@@H](N)c2ccccc2)cc1C` [Example 193, (S)-2-Amino-N-(3,4-dimethyl-phenyl)-N-[2-(2-fluoro-5-trifluoromethyl-phenyl)-ethyl]-2-phenyl-acetamide; hydrochloride], the antagonist equilibrium constant (Kb) was 0.016 µM. This Kb lies about 4.7-fold lower than the previous one.

The compound `CCOc1ccc(N(CCc2ccc(C(F)(F)F)cc2)C(=O)[C@@H](N)c2ccccc2)cc1OCC` [Example 140, (S)-2-Amino-N-(3,4-diethoxy-phenyl)-2-phenyl-N-[2-(4-trifluoromethyl-phenyl)-ethyl]-acetamide] returned a Kb of 0.0127 µM.

Turning to `NC(C(=O)N(CCc1ccc(C(F)(F)F)cc1)c1cccc(C2(O)COC2)c1)c1ccccc1` (centres unmarked) [Example 95, 2-Amino-N-[3-(3-hydroxy-oxetan-3-yl)-phenyl]-2-phenyl-N-[2-(4-trifluoromethyl-phenyl)-ethyl]-acetamide], the Kb stood at 0.0834 µM.

Compound `Cc1ccc(N(CCc2cc(Cl)ccc2Cl)C(=O)[C@@H](N)c2ccccc2)cc1C` [Example 203, (S)-2-Amino-N-[2-(2,5-dichloro-phenyl)-ethyl]-N-(3,4-dimethyl-phenyl)-2-phenyl-acetamide hydrochloride] yielded a Kb of 0.0996 µM.

The values are drawn from patent publication US20090036422A1 (priority 2007, published 2009).
